Patent publication US4497811A, “1-Oxadethiacephalosporin compound and antibacterial agent containing the _same” (priority 1983, dated 1985)
Structures can show the parent of a compound that is named as a salt.

How the values were obtained:
[1] = system: gram-positive and gram-negative bacteria; experiment: Antibacterial spectra in vitro (MIC), summary in words; assay type: cell-based; conditions: compared to cefroxadine
Source text: Minimum inhibitory concentrations (MIC.) (mcg/ml) as determined by serial
dilution method on agar plates

Escherichia coli No. 29 = experiment: Curative effect by oral administration in mice infected intraperitoneally with Escherichia coli No. 29 (survival over 7 days); assay type: in vivo; conditions: for number of surviving mice: three mice in each group, 7 days
Source text: Thus, some tests were made to evaluate the curative effects of the new compound of this invention in therapeutic treatment of bacterial infections when the new compound was orally given to mice (average body weight 20 g) which had been infected with Escherichia coli No. 29. In these tests for therapeutic treatment of the bacterial infection, mice (three mice in each group) were inoculated intraperitoneally with Escherichia coli No. 29 at an inoculmn dose of 3.25×10^5 CFU/mouse and then immediately treated by oral administration of the test compound. For the subsequent 7 days, the mice were kept under observation and the number of surviving mice was counted.

SMILES: CSC1=C(C(=O)O)N2C(=O)C(NC(=O)Cc3cccs3)C2OC1 (stereo not shown) [Example 1(b), 7-(2-thienylacetamido)-1-oxa-1-dethia-3-methylthio-3-cephem-4-carboxylic acid]
- antibacterial activity against resistant strains of bacteria [1]: effective and higher antibacterial activity against resistant strains of bacteria than cefroxadine
- antibacterial spectrum (range) [1]: wider range of the antibacterial spectrum than cefroxadine

SMILES: CSC1=C(C(=O)O)N2C(=O)C(NC(=O)Cc3ccsc3)C2OC1 (stereo not shown) [Example 2(b), 7-(3-thienylacetamido)-1-oxa-1-dethia-3-methylthio-3-cephem-4-carboxylic acid]
- antibacterial activity against resistant strains of bacteria [1]: effective and higher antibacterial activity against resistant strains of bacteria than cefroxadine
- antibacterial spectrum (range) [1]: wider range of the antibacterial spectrum than cefroxadine

SMILES: CSC1=C(C(=O)O)N2C(=O)C(NC(=O)C(C(=O)O)c3cccs3)C2OC1 (stereo not shown) [Example 3(b), 7-[2-(2-thienyl)-2-carboxyacetamido]-1-oxa-1-dethia-3-methylthio-3-cephem-4-carboxylic acid]
- antibacterial activity against resistant strains of bacteria [1]: effective and higher antibacterial activity against resistant strains of bacteria than cefroxadine
- antibacterial spectrum (range) [1]: wider range of the antibacterial spectrum than cefroxadine

SMILES: CSC1=C(C(=O)O)N2C(=O)C(NC(=O)C(C(=O)O)c3ccsc3)C2OC1 (stereo not shown) [Example 4(b), 7-[2-(3-thienyl)-2-carboxyacetamido]-1-oxa-1-dethia-3-methylthio-3-cephem-4-carboxylic acid]
- antibacterial activity against resistant strains of bacteria [1]: effective and higher antibacterial activity against resistant strains of bacteria than cefroxadine
- antibacterial spectrum (range) [1]: wider range of the antibacterial spectrum than cefroxadine

SMILES: CO/N=C(\C(=O)NC1C(=O)N2C(C(=O)O)=C(SC)COC12)c1csc(N)n1 (stereo not drawn) [Example 6(b), 7-[2-(2-amino-4-thiazolyl)-2-methoxyiminoacetamido]-1-oxa-1-dethia-3-methylthio-3-cephem-4-carboxylic acid trifluoroacetate (syn-isomer)]
- number of surviving mice (Escherichia coli No. 29; 0.1 mg/mouse): 1 mice
- number of surviving mice (Escherichia coli No. 29; 1 mg/mouse): 3 mice
- number of surviving mice (Escherichia coli No. 29; 5 mg/mouse): 3 mice
- number of surviving mice (Escherichia coli No. 29; 10 mg/mouse): 3 mice
- curative effects in therapeutic treatment of the bacterial infection in vivo (Escherichia coli No. 29; mice infected with Escherichia coli No. 29): better curative effects in therapeutic treatment of the bacterial infection in vivo
